# Measured values published in patent publication US20090176701A1, “Anti-microbial agents that interact with the complement system” (priority 2005, published 2009).
# Tests used:
# Format in all cases: cell-based
# E. coli O18:K1:H7 [1] = assay: Bacterial killing assay in 10% blood; parameters: CFU / CFU (Range) / CFU 1 hour / CFU 3 hours / CFU 5 hours / CFU 3 hour: scale not given here; settings: for CFU 1 hour / CFU 3 hours: Table 5, 3000 CFU; for CFU 1 hour: blood 3.4; for CFU 3 hours: blood 4.2; for CFU 5 hours / CFU 3 hour: Table 6; for CFU (Range): Table 9
# Protocol: TFPI was incubated with α-thrombin, plasmin, elastase and cathepsin G in 10% blood and tested for bacterial killing activity against E. coli O18:K1:H7 as follows. Recombinant TFPI at 5 μM (unless indicated otherwise), was treated with plasmin (100 nM, lane 3) and α-thrombin (100 nM, lane 7; 1 μM, lane 8) (A), elastase (100 nM, lanes 3 and 4) (B), and cathepsin G (100 nM, lane 4; 1 μM, lanes 5, 6 and 7) (C) in a total volume of 180 μl. The reaction contained TFPI diluted in RPMI 1640 without phenol red, 25 mM Hepes, pH 7.5 (RPMI), 3000 CFU E. coli O18:K1:H7 in 40 μl PBS, and diluted enzyme in 20 μl RPMI. The volume was adjusted with RPMI. The samples were pre-incubated for 15-30 minutes before the addition of anti-coagulant-free fresh blood to a final volume of 200 μl. Controls were 10% blood in RPMI, TFPI at 1, 2 and 5 μM, and the enzymes alone at the respective concentrations. The samples were incubated for 4 hours at 37° C. with 5% CO2 in a humidified incubator and serial dilutions plated on Tryptase soy agar plates. The number of bacterial colonies was determined after overnight incubation at 37° C. All experimental conditions are run in duplicate. The data represent the average colony number.
# The 18 μl aliquots were diluted to 10 μM TFPI with 445 μl RPMI 1640 without phenolred, 25 mM Hepes, pH 7.5 (RPMI) and assayed at a final concentration of 5 μM in 200 μl reactions containing 3000 CFU E. coli in 40 μl PBS, 10% non-coagulated blood, and adjusted to the final volume with RPMI. Negative controls were 10% blood in RPMI, TFPI at 5 μM and cathepsin G at 400 nM. Anti-coagulant free blood was freshly drawn and added to the reaction as the last component. The samples were manipulated as described above.
# Peptides were designed to test for bacterial killing activity localized in the C-terminal domain of TFPI. Activity was measured against Gram negative (E coli O18:K1:H7. ATCC 700973) bacteria in the presence of 10% blood as described above. Controls were RPMI with 10% blood and 100 nM Tifacogin. The biological activity was determined from the reduction of bacterial colonies, as above.
# The three peptides #1, #2, & #3 were diluted in H2O to 10 fold their final assay concentration and incubated with bacteria for 4 hours, at the final concentrations of 3 μM, 300 nM 100 nM and 10 nM. E. coli was used at 3000 CFU/200 μl. Surviving colony numbers were determined as described in Example 1. […] Full-length TFPI has no activity against Gram negative bacteria in these assays at the concentrations tested.
# Time-dependency: Peptides were incubated with 3000 CFU E. coli O18:K1:H7 at the indicated final concentrations in the presence of 10% blood in three parallel 200 μl reactions as described above. RPMI with 10% blood was used as negative control. After incubation for 1, 3, or 5 hours samples were assayed for the effect on bacterial survival by plating serial dilutions onto agar plates. […] The effect of peptides on bacterial survival increases over the time-span studied.
# In these experiments, variable concentrations of E. coli O18:K1:H7 (3×10^3, 3×10^4 or 3×10^5 CFU/200 μl) were challenged with either 3 μM or 100 nM peptide #3 in RPMI/10% blood, and incubated for 3 or 5 hours before dilution and plating. Briefly, the bacteria were diluted to the indicated CFU in 40 μl PBS, the reactions assembled at a final volume of 200 μl as above, and incubated at 37° C. Serial dilutions of the reactions were plated and the colony number determined after overnight incubation. […] At 5 hours no effect on the high CFU culture was discernable, indicating a titration of the killing activity and the high CFU culture exceeding the capacity.
# [2] = tested on: E. coli O7:K1(L):NM (ATCC 23503); assay: Bacterial killing assay with normal human serum, additional strain; settings: Table 3, peptide 3 μM, NHS control 5.3
# Protocol: Peptide #3 was tested for activity at 3 μM on additional strains of E. coli using normal human serum as a control.
# E. coli O18:K1:H7 [3] = assay: Bacterial killing assay without blood (growth medium); settings: Table 4; no blood, peptide 3 μM; growth medium 6.2
# Protocol: Peptides #1, #3 and #4 were tested for their activity without blood on E. coli O18:K1:H7. The peptides were assayed at 3 μM. The same blood and TFPI controls were included as in Experiment I.
# E. coli O18:K1:H7 [4] = assay: Bacterial killing assay in serum or plasma (complement dependence)
sequence,measurement,setting,value
"GFIQRISKGGLIKTKRKRKKQRVKIAY (homo sapiens) [Peptide #3, TFPI aas 242-268]",activity against O18ac:K1:H7 E. coli strain in blood,"E. coli O18:K1:H7 [1]; 10% blood, 4 hours, concentrations tested 10 nM to 3 μM, peptide #5 compared to peptide #3",active
same,CFU,"E. coli O18:K1:H7 [1]; Table 1, peptide 300 nM, 10% blood, 3000 CFU/200 μl, 4 hours, blood control 5.1",2.2
same,CFU,"E. coli O18:K1:H7 [1]; Table 2, peptide 10 nM, 10% blood, blood control 3.5",2.6
same,CFU,"E. coli O18:K1:H7 [1]; Table 2, peptide 100 nM, 10% blood, blood control 3.5",1.2
same,CFU 1 hour,"E. coli O18:K1:H7 [1]; 300 nM, 10% blood",3.3
same,CFU 3 hours,"E. coli O18:K1:H7 [1]; 300 nM, 10% blood",1.2
same,CFU 1 hour,"E. coli O18:K1:H7 [1]; 3 μM, 10% blood",3.2
same,CFU 3 hours,"E. coli O18:K1:H7 [1]; 3 μM, 10% blood",0.2
same,CFU 5 hours,"E. coli O18:K1:H7 [1]; 3000 bacteria, 100 nM, blood alone 3.4",1.2
same,CFU 3 hour,"E. coli O18:K1:H7 [1]; 3000 bacteria, 100 nM, blood alone 3.9",2.3
same,CFU 3 hour,"E. coli O18:K1:H7 [1]; 30,000 bacteria, 100 nM, blood alone 5.1",1.5
same,CFU 5 hours,"E. coli O18:K1:H7 [1]; 30,000 bacteria, 100 nM, blood alone 6.3",4.1
same,CFU 3 hour,"E. coli O18:K1:H7 [1]; 30,000 bacteria, 3 μM, blood alone 5.1",1.1
same,CFU 5 hours,"E. coli O18:K1:H7 [1]; 30,000 bacteria, 3 μM, blood alone 6.3",3.6
same,CFU 3 hour,"E. coli O18:K1:H7 [1]; 300,000 bacteria, 100 nM, blood alone 7.7",7.5
same,CFU 5 hours,"E. coli O18:K1:H7 [1]; 300,000 bacteria, 100 nM, blood alone 8.4",9.1
same,CFU 3 hour,"E. coli O18:K1:H7 [1]; 300,000 bacteria, 3 μM, blood alone 7.7",5.8
same,CFU 5 hours,"E. coli O18:K1:H7 [1]; 300,000 bacteria, 3 μM, blood alone 8.4",9.1
same,CFU,"E. coli O18:K1:H7 [1]; Table 7, blood at 20 μl, digested rTFPI 5 μM, peptide #3 in parallel, control 4.1",1.5
same,CFU (Range),"E. coli O18:K1:H7 [1]; peptide 3 μm, Heparin, 3 U/mL",5.5
same,CFU (Range),"E. coli O18:K1:H7 [1]; peptide 3 μm, LMW heparin, 0.3 U/mL",4.2 (4.1-4.2)
same,CFU (Range),"E. coli O18:K1:H7 [1]; peptide 3 μm, LMW heparin, 3 U/mL",5.2 (5.2-5.3)
same,bacterial killing activity with un-fractionated heparin,"E. coli O18:K1:H7 [1]; peptide 3 μm, un-fractionated heparin at 0.3 U/ml, data not shown",partial loss of bacterial killing activity
same,CFU,[2],2.9
same,CFU (Range),E. coli O18:K1:H7 [3],6.2 (6.1-6.2)
same,bacterial killing activity in CVF-treated serum,"E. coli O18:K1:H7 [4]; FIG. 8C, 1 U/ml CVF",still preserved
same,bacterial killing activity in CVF-treated serum,"E. coli O18:K1:H7 [4]; FIG. 8C, serum treated with 10 U/ml of CVF",lost
same,bacterial killing activity in serum,"E. coli O18:K1:H7 [4]; FIG. 8C, untreated serum or serum incubated 30 minutes at room temperature without CVF",active
same,bacterial killing activity in serum (rank),"E. coli O18:K1:H7 [4]; FIG. 8D, peptides serially diluted to 300 nM, and 30 nM in serum",strongest effect
same,bacterial killing activity in C4-deficient serum,"E. coli O18:K1:H7 [4]; FIG. 9, C4-deficient guinea pig serum",completely devoid of bacterial killing activity
same,bacterial killing activity in complement-depleted sera,"E. coli O18:K1:H7 [4]; FIG. 9, serum depleted for C1q, C3, C6, C2, C9, or deficient for C4",loss
same,bacterial killing activity after add-back of complement factor,"E. coli O18:K1:H7 [4]; FIGS. 9 C and D, purified C1 complex (2.34 μg) or factor C4 (6 μg) added back to the respective depleted/deficient serum",restored
same,CFU,"E. coli O18:K1:H7 [4]; Table 7, serum at 40 μl, digested rTFPI 5 μM, peptide #3 in parallel, control 4.2",1.2
same,CFU,"E. coli O18:K1:H7 [4]; Table 8, Serum + 5 mM MgC12, 10 mM EDTA, control 4.4",4.2
same,bacterial killing activity in chelated serum,E. coli O18:K1:H7 [4]; serum containing 10 mM EGTA and 5 mM MgCl2,no bacterial killing activity
